Measured values taken from patent publication EP2490029A1, “Vancomycin analysis” (Université Catholique de Louvain, priority 2011, dated 2012).

How the values were obtained:
Nα(Ac)-L-Lys-D-Ala-D-Ala = test: FTIR-ATR biosensor binding of vancomycin to immobilized peptide receptor; settings: for vancomycin binding: 50 µg/mL; for Kd: single site binding isotherm, R^2 = 0.99, ± standard error
Protocol: On the thus functionalized ATR element a peptide was bound. Peptide binding onto the device was obtained in one channel of measurement at a time by incubation for 3 hours of N-α-acetyl-Lys-D-Ala-D-Ala peptide, or another peptide as provided in Figure 2, at a concentration of 2 mg/mL in phosphate buffered saline (PBS) at room temperature. The measurement channel was then rinsed with milliQ water for 30 min.
The binding of the peptide was monitored by FTIR-ATR spectroscopy by using the BIA-ATR device. Attenuated Total Reflection Fourier Transformed Infrared (ATR-FTIR) Spectra were obtained on a Brüker IFS55 FTIR spectrophotometer (Ettlingen, Germany) equipped with a MCT detector (broad band 12000-420 cm^-1, liquid N2 cooled, 24h hold time) at a resolution of 8 cm^-1 with an aperture of 3.5 mm and acquired in the double-sided, forward-backward mode. Two levels of zero filling of the interferogram prior to Fourier transform allowed encoding the data every 1 cm^-1. The spectrometer was continuously purged with dry air (Whatman 75-62, Haverhill, MA, USA). Triangular-shaped germanium crystals (4.8 x 4.8 x 45 mm^3) were purchased from Biosentech (Belgium) and accommodated on the beam condenser from a Golden Gate Micro-ATR from Specac. A top plate with a groove fitting the crystal was used in replacement of the diamond-bearing plate (WOW Company, Belgium). With this geometry, a single reflection was obtained and more than 10 lanes can be used on a crystal.
Using a biosensor constructed in Example 1, a solution of vancomycin in pure water (obtained from the laboratory MilliQ system) at a concentration of at 50 µg/mL is passed over one channel of the crystal at a flow-rate of 20 µl/min. FTIR-ATR spectra were recorded continuously and the vancomycin binding is monitored by following the appearance of its characteristic signal at 1230 cm^-1. This monitoring of this signal is advantageous as it is isolated in the spectra, i.e. not superimposed to other signals due to ligand and/or receptor. The intensity of the peak at 1230 cm^-1 thus allowed the quantitative measurement of vancomycin binding.
The N-α(Ac)-L-Lys-D-Ala-D-Ala biosensor as described in Example 1 was used. A solution of vancomycin in phosphate buffered saline (50 µg/mL) was used in the binding assay. The quantitative analysis was performed by measuring the surface on the IR spectra comprised between 1253 and 1218 cm^-1. The spectra were recorded every 30 sec during 5 min. […] The results are depicted in Figure 1.
The unexpected effect on the binding affinity of vancomycin versus X-D-Ala-D-Ala receptor immobilized on the ATR optical element, has been further observed by using the following detection media: 3 mM aqueous solution of Na2HPO4, 10 mM aqueous solution of Na2HPO4, 154 mM aqueous solution of NaCl, and a PBS solution made from 3 mM Na2HPO4 and 50 mM NaCl.
The Nα(Ac)-L-Lys-D-Ala-D-Ala biosensor described in Example 1 was used. The assays were performed three times successively using the same channel, and this has been repeated at three different days (n = 9) using another channel for each day. Solutions of vancomycin in 5% glucose at various concentrations (from 0 to 25 µg/mL) were passed over the crystal at a flow rate of 20 µL/min. The vancomycin binding was analyzed by the integration of the peak at 1230 cm^-1 (10 spectra recorded every 30 sec), and normalized by referring to the 25 µg/mL concentration.
The spiked dialyzed serum samples were flown over a measurement channel on which the Nα(Ac)-L-Lys-D-Ala-D-Ala had been attached as described before in Example 1. The absorption band between 1259 and 1213 cm^-1 was quantified for each vancomycin concentration. The area of the band was reported as a function of vancomycin concentration. […] From the data reported in Figure 4 it follows that vancomycin binding can be monitored with precision in a concentration range which is relevant for medical application.

[1] = test system: N-α-acetyl-Lys-D-ala-D-ala; test: Quartz crystal microbalance (QCM) detection of vancomycin on grafted peptide receptor; assay type: binding; settings: water/glucose solution compared with water; 1 µM and 40 µM; flow rate 40 µL/min
Protocol: Quartz crystal microbalance experiments were performed using SRS Stanford Research Systems (QCM 200 5MHz). The surfaces of gold-plated quartz crystal on chips were prepared as follows: gold-plated quartz crystals were initially immersed in a piranha solution (70/30) for 3 minutes to regenerate the surfaces. The resulting crystals were repeatedly and intensively rinsed with water. The crystals were subsequently grafted with mPEG thiols (O-(2-Mercaptoethyl)-O'-methyl-hexa(ethylene glycol) (polypure) 10^-3 M in ethanol. The grafted crystals were subsequently rinsed with ethanol in an ultrasonic bath, and dried with N2. The grafted crystals were subsequently grafted with NHS ester succinimidyl, 2 mM in acetonitrile sprayed on the surfaces and the surfaces were placed in front of a UV lamp during 2 hours. The functionalized surfaces of the crystals were subsequently rinsed with acetonitrile in an ultrasonic bath; dried with N2, and then subsequently grafted with N-α-acetyl-Lys-D-ala-D-ala in pure water and in water with 5% of glucose (vol.).
All QCM experiments used a flow rate of 40 µL/min. The quality of all the grafting has been tested at each step, by contact angle measurements and IR spectra. All of them were satisfactory. Figures 6, 7 and 8 represent QCM data plot showing delta frequency (MHz) change over time of vancomycin detection. […]

In the case of `CN[C@H](CC(C)C)C(=O)N[C@H]1C(=O)N[C@@H](CC(N)=O)C(=O)N[C@H]2C(=O)N[C@H]3C(=O)N[C@H](C(=O)N[C@H](C(=O)O)c4cc(O)cc(O)c4-c4cc3ccc4O)[C@H](O)c3ccc(c(Cl)c3)Oc3cc2cc(c3O[C@@H]2O[C@H](CO)[C@@H](O)[C@H](O)[C@H]2O[C@H]2C[C@](C)(N)[C@H](O)[C@H](C)O2)Oc2ccc(cc2Cl)[C@H]1O` [vancomycin], the “amount of vancomycin detected” value (Nα(Ac)-L-Lys-D-Ala-D-Ala; 50 µg/mL in phosphate buffered saline, compared to pure water, IR area 1253-1218 cm^-1) is reported as “very weak”, the vancomycin binding (Nα(Ac)-L-Lys-D-Ala-D-Ala; effect of phosphate (3 mM or 10 mM Na2HPO4, PBS) in detection medium) is reported as “totally prevents” and the vancomycin binding (Nα(Ac)-L-Lys-D-Ala-D-Ala; effect of sodium chloride at physiological concentration (154 mM NaCl)) is reported as “partially inhibited”. For the same molecule, the Kd (Nα(Ac)-L-Lys-D-Ala-D-Ala; in 5% glucose, band area 1259-1213 cm^-1) was 13.7 ± 1.8 µM, the Kd (Nα(Ac)-L-Lys-D-Ala-D-Ala; in human serum dialyzed against 5% glucose) was 7.3 ± 0.8 µM and the “vancomycin binding onto the receptor” value (Nα(Ac)-L-Lys-D-Ala-D-Ala; in pure water) was “maximal”. For the same molecule, the delta frequency shift [1] was “greater delta frequency was always observed in the presence of glucose”.
